Measured values taken from ChEMBL document CHEMBL5532664, “Discovery, Optimization, and Evaluation of Potent and Selective DNA-PK Inhibitors in Combination with Chemotherapy or Radiotherapy for the Treatment of Malignancies” (J Med Chem, 2024).
Active and inactive are the calls of the source. The rule behind the calls is not given here.

How the values were obtained:
in vivo [1] = settings: Sprague-Dawley, rat, plasma, po, 5 mg/kg
Description: Clearance in Sprague-Dawley rat plasma at 5 mg/kg, po measured upto 24 hrs by LC-MS/MS analysis

in vivo [2] = settings: Sprague-Dawley, rat, iv, 5 mg/kg
in vivo [3] = settings: Sprague-Dawley, rat, iv, 5 mg/kg; remark: listed apart in the source
in vivo [4] = settings: Sprague-Dawley, rat, po, 5 mg/kg
in vivo [5] = settings: Sprague-Dawley, rat, po, 5 mg/kg; remark: listed apart in the source
in vivo [6] = settings: Sprague-Dawley, rat, plasma, iv, 5 mg/kg
Description: (§1) Clearance in Sprague-Dawley rat plasma at 5 mg/kg, iv measured upto 24 hrs by LC-MS/MS analysis

in vivo [7] = settings: Sprague-Dawley, rat, po, 5 mg/kg; remark: listed apart in the source
HCT-116 [8] = experiment: Inhibition of colony formation in human HCT-116 cells at […] preincubated with compound for 1 hr followed by exposure to 2 Gy gamma irradiation and measured after 7 days by crystal violet staining based chemiluminescence assay relative to control; assay type: functional; settings: HCT-116, light or radiation study, dose 0.25 µM, time 169 hrs
[9] = target: DNA-dependent protein kinase catalytic subunit (Homo sapiens, UniProt P78527)
Description: Inhibition of human DNA-PK incubated for 30 mins in presence of Mg/ATP by HTRF method

in vivo [10] = settings: Sprague-Dawley, rat, iv, 5 mg/kg; remark: listed apart in the source
hERG (KCNH2) = hERG (KCNH2) (Homo sapiens, UniProt Q12809); experiment: in vitro
Description: Inhibition of human ERG at 20 uM relative to control

in vivo [11] = settings: Sprague-Dawley, rat, po, 5 mg/kg; remark: listed apart in the source
in vitro = settings: human, liver microsomes
HCT-116 [12] = experiment: Inhibition of colony formation in human HCT-116 cells preincubated with compound for 1 hr followed by exposure to 2 Gy gamma irradiation and measured after 7 days by crystal violet staining based chemiluminescence assay; assay type: functional, cell-based; settings: HCT-116, light or radiation study
A549 = experiment: Antitumor activity against human A549 cells xenografted in BALB/c nude mouse assessed as inhibition of tumor growth at 10 mg/kg, iv administered thrice measured upto 26 days by vernier caliper analysis; assay type: functional, organism-based; settings: time <= 26.0 day
[13] = rat, in vivo, iv, 5 mg/kg, 24 h
Description: as §1

NCI-H460 = experiment: Antitumor activity against human NCI-H460 cells xenografted in BALB/ c nude mouse assessed as inhibition of tumor growth at 100 mg/kg, po administered once daily with 2 Gy irradiation and measured upto 7 days by vernier caliper analysis; assay type: functional, organism-based; settings: time <= 7.0 day

hERG (KCNH2), sequence (Q12809 whole entry): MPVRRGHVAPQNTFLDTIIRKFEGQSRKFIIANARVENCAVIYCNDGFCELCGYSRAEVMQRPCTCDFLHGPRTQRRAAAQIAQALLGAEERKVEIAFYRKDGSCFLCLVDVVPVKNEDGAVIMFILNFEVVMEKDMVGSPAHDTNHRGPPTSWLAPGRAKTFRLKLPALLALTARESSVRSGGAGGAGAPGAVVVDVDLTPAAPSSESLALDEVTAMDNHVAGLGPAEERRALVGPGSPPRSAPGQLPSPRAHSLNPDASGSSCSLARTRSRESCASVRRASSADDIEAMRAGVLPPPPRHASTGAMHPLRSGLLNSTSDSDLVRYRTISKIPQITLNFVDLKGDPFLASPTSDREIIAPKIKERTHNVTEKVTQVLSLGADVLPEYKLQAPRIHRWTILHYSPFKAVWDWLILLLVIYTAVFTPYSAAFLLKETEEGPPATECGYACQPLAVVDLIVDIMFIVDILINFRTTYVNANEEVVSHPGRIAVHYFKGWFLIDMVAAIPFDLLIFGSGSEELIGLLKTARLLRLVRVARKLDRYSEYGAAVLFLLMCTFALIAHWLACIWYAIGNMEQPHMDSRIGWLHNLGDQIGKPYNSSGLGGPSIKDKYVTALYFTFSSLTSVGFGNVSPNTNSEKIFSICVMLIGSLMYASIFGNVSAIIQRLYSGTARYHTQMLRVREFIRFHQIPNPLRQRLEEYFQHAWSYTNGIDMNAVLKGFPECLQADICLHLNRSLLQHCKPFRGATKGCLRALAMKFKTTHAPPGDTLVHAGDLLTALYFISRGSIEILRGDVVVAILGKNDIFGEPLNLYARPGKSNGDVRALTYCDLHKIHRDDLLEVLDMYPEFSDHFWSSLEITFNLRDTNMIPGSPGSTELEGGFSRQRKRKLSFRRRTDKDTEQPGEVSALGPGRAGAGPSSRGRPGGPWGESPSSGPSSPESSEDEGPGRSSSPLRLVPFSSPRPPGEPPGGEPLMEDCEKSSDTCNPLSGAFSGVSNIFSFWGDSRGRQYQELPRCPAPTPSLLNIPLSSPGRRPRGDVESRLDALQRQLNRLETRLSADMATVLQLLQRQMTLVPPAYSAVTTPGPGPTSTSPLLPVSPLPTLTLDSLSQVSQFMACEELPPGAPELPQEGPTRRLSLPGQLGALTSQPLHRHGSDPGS

## COc1ccc(-c2cc(C)c(Nc3ncc4c(n3)n(C3CCOCC3)c(=O)n4C)cn2)cn1
In vivo [1]
  CL/F at 24 h: 10.7 mL/min/kg
In vivo [2]
  AUC(0-t) at 24 h: 13200 ng·h/mL
In vivo [3]
  Cmax at 24 h: 1960 ng/mL
In vivo [4]
  Cmax at 24 h: 1960 ng/mL
In vivo [5]
  bioavailability at 24 h: 59.6%
In vivo [6]
  clearance at 24 h: 6.33 mL/min/kg
In vivo [7]
  half-life at 24 h: 4.37 h
HCT-116 [8]
  inhibition at […]: 96.7%
[9]
  IC50: 3 nM
In vivo [10]
  half-life at 24 h: 3.34 h
hERG (KCNH2)
  inhibition at 20 µM: 16.8%
In vivo [11]
  AUC(0-t) at 24 h: 7860 ng·h/mL
In vitro
  half-life at 5 min, 1 µM: 19.2 h
HCT-116 [12]
  IC50: 79.3 nM

## CC(=O)O[C@H]1C(=O)[C@@]2(C)[C@H]([C@H](OC(=O)c3ccccc3)[C@]3(O)C[C@H](OC(=O)[C@H](O)[C@@H](NC(=O)c4ccccc4)c4ccccc4)C(C)=C1C3(C)C)[C@]1(OC(C)=O)CO[C@@H]1C[C@@H]2O
A549
  Activity: inactive

## Cc1cc(-c2ccc(C=O)o2)ncc1Nc1ncc2c(n1)n(C1CCOCC1)c(=O)n2C
[13]
  CL: 2420.2 mL/min/kg
In vivo [1]
  CL/F at 24 h: 6790 mL/min/kg
In vivo [2]
  AUC(0-t) at 24 h: 29.9 ng·h/mL
In vivo [3]
  Cmax at 24 h: 25.2 ng/mL
In vivo [4]
  Cmax at 24 h: 2.24 ng/mL
In vivo [5]
  bioavailability at 24 h: 36.2%
In vivo [7]
  half-life at 24 h: 34.4 h
HCT-116 [8]
  inhibition at […]: 98.5%
[9]
  IC50: 0.2 nM
In vivo [10]
  half-life at 24 h: 9.79 h
hERG (KCNH2)
  inhibition at 20 µM: 4.42%
In vivo [11]
  AUC(0-t) at 24 h: 7.83 ng·h/mL
In vitro
  half-life at 5 min, 1 µM: 0.327 h

## COc1ccc(-c2cc(C)c(Nc3ncc4c(n3)n(C3CCOCC3)c(=O)n4C)cn2)cc1OC
In vivo [1]
  CL/F at 24 h: 22.3 mL/min/kg
In vivo [2]
  AUC(0-t) at 24 h: 7400 ng·h/mL
In vivo [3]
  Cmax at 24 h: 869 ng/mL
In vivo [4]
  Cmax at 24 h: 341 ng/mL
In vivo [5]
  bioavailability at 24 h: 46.6%
NCI-H460
  Activity: Active
In vivo [6]
  clearance at 24 h: 11 mL/min/kg
In vivo [7]
  half-life at 24 h: 6.73 h
HCT-116 [8]
  inhibition at […]: 99.9%
[9]
  IC50: 1 nM
In vivo [10]
  half-life at 24 h: 4.73 h
hERG (KCNH2)
  inhibition at 20 µM: 8.61%
In vivo [11]
  AUC(0-t) at 24 h: 3450 ng·h/mL
In vitro
  half-life at 5 min, 1 µM: 2.31 h
HCT-116 [12]
  IC50: 48 nM
